# According to paper PMC8298375 (Naunyn-Schmiedeberg's Archives of Pharmacology, 2021):
# Read-outs that look alike come from different tables or passages of the source.
# Experiments:
# AChE = assay type: in vivo, rat; details: scopolamine model; for % AChE Inhibition: plasma
# Method: (§1) Samples were then centrifuged at 10,000 rpm for 5 min, and plasma was stored at − 70 °C until analysis.
# Thiocholine, which was produced due to the hydrolysis of acetylthiocholine (ACTI) by AChE, was estimated by making it react with 5, 5′-dithiobis-(2-nitrobenzoic acid) (DTNB). The chemical, 5-thio-2-nitrobenzoic acid (yellow color complex), which was released due to reaction was estimated using a UV spectrophotometer in the range of 400 to 420 nm with maximal absorption at 412 nm. One hundred microliter of blank rat plasma was taken in the polypropylene vials. To this, 2.8 mL of phosphate buffer (0.01 M, pH 8) and 100 µL of DTNB reagents were added and mixed well. Then, 20 µL of ACTI (26.01 mg/mL of Milli-Q water) was added to the contents of the cuvette to initiate the enzyme reaction. The reaction kinetics was monitored at different time intervals (0, 1, 2, 3, 4 min), and absorbance was noted. 2.8 mL buffer (0.01 M, pH 8.0) and 100 µL DTNB reagent served as blank. Concentrations in the range of 0.03–30 mM were prepared using methanol as a diluent. […] Substrate concentration and reaction time were optimized such that sufficient concentration of ACTI is available to bind with the enzyme to initiate the reaction and also it should not saturate the enzyme. In this study, varying concentrations (100–1000 µM) of ACTI were prepared, and reaction kinetics were observed. In general, the maximum time should be either 2–4 min or even less, because the enzyme might undergo degradation. In the present study, up to 4 min of reaction kinetics (changing the optical density or absorbance) was measured. One unit of AChE activity is defined as the number of µmol of acetylthiocholine iodide hydrolyzed per minute. The specific activity of AChE is expressed in moles/min/mg of protein (Kaur et al. [2015]): AChEActivity=(abs.permin×1000×volumeofenzyme)/(13600×TRM)AChEActivity=abovevalue×1000(nanomolar/min/mL)
# where 13,600 = molar extinction coefficient of DTNB: 1000-molar conversion factor: (TRM) total reaction mixture 3 mL: volume of enzyme (0.1 mL).
# [1] = Pharmacokinetic study in scopolamine-induced amnesic rats (plasma); assay type: in vivo, Wistar rats; details: for Absolute F: absolute bioavailability; for Cl_F_obs: clearance; for DN Cmax: dose-normalised Cmax; for Vz_F_obs: volume of distribution
# Method: as §1
# Briefly, to an aliquot of 100 µL of rat plasma, 10 µL of IS (1 µg/mL) was added and vortexed for 30 s. Then, 1 mL of TBME tertiary methyl butyl ether) was added and vortexed for 10 min, thereafter centrifuged at 10,000 rpm for 5 min. From the supernatant, 0.9 mL of organic solvent was aspirated and evaporated in a turbo evaporator (Zymark, Hopkinton, MA, USA) at 50 ± 2 °C under the stream of nitrogen. The dried residue was reconstituted with 150 µL of mobile phase, and 50 µL was injected for the HPLC analysis. A full validation according to the US-FDA guidelines was performed in rat plasma. Plasma samples were analyzed by previously validated HPLC with fluorescence detection method (Arumugam [2011]).
# HPLC analysis was carried out on Shimadzu LC-20AD Prominence (Shimadzu Corporation, Kyoto, Japan) equipped with LC-20AD pump, RF-10A-XL fluorescence detector, column oven (CTO-10AS VP), autosampler SIL-20AC HT, and LC solution version 1.24 SP1. The column oven temperature was maintained at 25 °C. The chromatographic separation was achieved by Intersil, ODS-3 V, C18 (250 × 4.6 mm, 5 µm) column (GL Sciences Inc., Japan). Isocratic elution was performed with ammonium acetate buffer (20 mM, pH 4.5) and acetonitrile 74:26 (v/v) as mobile phase. The flow rate was maintained at 1 mL/min, and the injection volume was 50 µL. Fluorimetric detection was used, and excitation and emission wavelength were 220 nm and 293 nm, respectively. The sensitivity of the detector was “medium”, and the response kept at 3. Venlafaxine (IS) was prepared separately in methanol to yield primary standard solutions with a concentration of 1 mg/mL.
# The pharmacokinetic parameters were calculated using non-compartmental analysis, PK solution 2.1software (Summit Research Services, Montrose, Colorado, USA). The area under the curve (AUC) from zero to infinity is calculated using the trapezoidal method. The terminal elimination rate constant (β) was obtained by plotting log-linear concentration versus time; the corresponding half-life (t1/2β) was calculated by 0.693/β. […] The clearance (CL) and volume of distribution (Vd) were calculated as follows: CL=Dose/AUC0-∞,Vd(apparent)=CL/β
# [2] = Wistar, rat, oral (ORSM), other: intranasal (INRSM)
compound,measurement,setting,value
"CCN(C)C(=O)Oc1cccc([C@H](C)N(C)C)c1 [ORSM, rivastigmine]","peak AChE inhibition (Emax, maximum inhibition) in plasma",AChE,71.11%
same,time of peak AChE inhibition in plasma,AChE,60 min
same,% AChE Inhibition,"AChE; 0 min, listed as SCP + ORSM",0.00 ± 0.0543%
same,% AChE Inhibition,"AChE; 5 min, listed as SCP + ORSM",26.67 ± 0.1358%
same,% AChE Inhibition,"AChE; 10 min, listed as SCP + ORSM",49.99 ± 0.1026%
same,% AChE Inhibition,"AChE; 15 min, listed as SCP + ORSM","62.03 ± 0.0877 a,b %"
same,% AChE Inhibition,"AChE; 20 min, listed as SCP + ORSM",66.09 ± 0.0921%
same,% AChE Inhibition,"AChE; 30 min, listed as SCP + ORSM",64.89 ± 0.0895%
same,% AChE Inhibition,"AChE; 45 min, listed as SCP + ORSM",70.42 ± 0.0577%
same,% AChE Inhibition,"AChE; 60 min, listed as SCP + ORSM",71.11 ± 0.0438%
same,% AChE Inhibition,"AChE; 90 min, listed as SCP + ORSM",68.18 ± 0.0298%
same,% AChE Inhibition,"AChE; 120 min, listed as SCP + ORSM",64.36 ± 0.0262%
same,% AChE Inhibition,"AChE; 180 min, listed as SCP + ORSM",48.89 ± 0.0378%
same,% AChE Inhibition,AChE; 240 min,37.05 ± 0.0184%
same,MRT,"[1]; Wistar, rat, oral (ORSM), other: intranasal (INRSM), read-out: MRT (converted)",27.6 min
same,clearance,"[1]; Wistar, rat, oral, 2.5 mg/kg, read-out: clearance rate",1500 ± 760 mL/min
same,Vd,"[1]; Wistar, rat, oral, 2.5 mg/kg, read-out: volume of distribution",29.2 ± 14.3 L/kg
same,Tmax,"[1]; Wistar, rat, po",15 min
same,half-life,"[1]; Wistar, rat, po",13.5 ± 5.79 min
same,k el,"[1]; Wistar, rat, po",0.000857 s⁻¹
same,AUC(0-inf),"[1]; Wistar, rat, po, 2.5 mg/kg",27.7 ng·h/mL
same,Cmax,"[1]; Wistar, rat, po, 2.5 mg/kg",56.3 ± 27.1 ng/mL
same,Absolute F,[1],4.39 ± 1.82%
same,Absolute F,[1]; listed as oral rivastigmine,4.39 ± 1.82%
same,Cl_F_obs,[1],1502.59 ± 763.25 mL/min
same,DN Cmax,[1],22.51 ± 10.82 ng/mL
same,Vz_F_obs,[1],29.23 ± 14.35 L
"CCN(C)C(=O)Oc1cccc([C@H](C)N(C)C)c1 [INRSM, rivastigmine]","peak AChE inhibition (Emax, maximum inhibition) in plasma",AChE,71.95%
same,time of peak AChE inhibition in plasma,AChE,10 min
same,% AChE Inhibition,"AChE; 0 min, listed as SCP + INRSM",0.00 ± 0.0294%
same,% AChE Inhibition,"AChE; 5 min, listed as SCP + INRSM",64.46 ± 0.1016%
same,% AChE Inhibition,"AChE; 10 min, listed as SCP + INRSM",71.95 ± 0.0398%
same,% AChE Inhibition,"AChE; 15 min, listed as SCP + INRSM","71.82 ± 0.0577 a,b,c %"
same,% AChE Inhibition,"AChE; 20 min, listed as SCP + INRSM",62.84 ± 0.0565%
same,% AChE Inhibition,"AChE; 30 min, listed as SCP + INRSM",63.67 ± 0.0441%
same,% AChE Inhibition,"AChE; 45 min, listed as SCP + INRSM",59.44 ± 0.0384%
same,% AChE Inhibition,"AChE; 60 min, listed as SCP + INRSM",57.57 ± 0.0314%
same,% AChE Inhibition,"AChE; 90 min, listed as SCP + INRSM",56.2 ± 0.317%
same,% AChE Inhibition,"AChE; 120 min, listed as SCP + INRSM",51.35 ± 0.0329%
same,% AChE Inhibition,"AChE; 180 min, listed as SCP + INRSM",49.26 ± 0.0264%
same,MRT,[1],32.12 ± 16.46 min
same,Cmax,"[1]; Wistar, rat, inhaled or intranasal, 2 mg/kg",994 ± 471 ng/mL
same,Tmax,[1]; [2],5 min
same,half-life,[1]; [2],30.5 ± 10.8 min
same,k el,[1]; [2],0.000378 s⁻¹
same,AUC(0-inf),"[1]; Wistar, rat, other: intranasal, 2 mg/kg",330 ng·h/mL
same,Absolute F,[1],65.44 ± 14.57%
same,Cl_F_obs,[1],100.95 ± 36.47 mL/min
same,DN Cmax,[1],497.23 ± 235.52 ng/mL
same,Vz_F_obs,[1],4.45 ± 1.72 L
